Results taken from patent US7494986B2, “Cycloalkylamine derivatives as NK-1/SSRI antagonists” (Bristol-Myers Squibb Company, priority 2004, dated 2009).

Legend:
[1] = biological target: T1, human serotonin transporters (Homo sapiens, UniProt P31645); assay: Serotonin transporter binding assay, [3H]-citalopram competition on HEK-hSERT cell membranes; settings: 1 nM [3H]-citalopram displacement, read-out: SERT IC50
T1 construct: expressed in transfected cells
Method: HEK-293 cells that stably express human serotonin transporters (HEK-hSERT cells) were grown at 37° C. in 5% CO2 as a monolayer in medium consisting of EMEM supplemented with 10% fetal bovine serum and G418 sulfate (500 μg/ml). To prepare membranes for radioligand binding experiments, cells were rinsed twice with phosphate-buffered saline (138 mM NaCl, 4.1 mM KCl, 5.1 mM Na2PO4, 1.5 mM […], 11.1 mM glucose, pH 7.4). Cells were transferred from plates to polypropylene tubes (16×100 mm), centrifuged at 1,200×g for 5 min and were frozen at −80° C. until assay. Following centrifugation, pellets were resuspended by homogenization in buffer consisting of 50 mM Tris (pH 7.7 at 25° C.), 120 mM NaCl and 5 mM KCl and then centrifuged at 32,000×g for 10 min. Following centrifugation, supernatants were discarded and pellets were resuspended in buffer consisting of 50 mM Tris (pH 7.4 at 25° C.), 150 mM NaCl and 5 mM KCl. […] Amount of radioligand bound in the presence and absence of competitor was analyzed by plotting (−)log drug concentration versus the amount of radioligand specifically bound. […] Ki values were calculated using the method of Cheng and Prusoff Cheng and Prusoff [Cheng, Y.-C. and Prusoff, W. H., Biochemical Pharmacology, Vol. 22, pp. 3099-3108, Pergamon Press (1973)].

[2] = biological target: T2, neurokinin-1 (NK-1) receptor (Homo sapiens, UniProt P25103); assay: NK-1 binding assay, [125I] Substance P competition on U373 cell membranes; settings: Bolton Hunter labeled [125I] Substance P displacement
T2 construct: endogenously expresses the neurokinin-1 (NK-1) receptor; endogenous in cells; host or cells: U373 human glioblastoma-astrocytoma cells (membranes)
T2 sequence (P25103 whole entry): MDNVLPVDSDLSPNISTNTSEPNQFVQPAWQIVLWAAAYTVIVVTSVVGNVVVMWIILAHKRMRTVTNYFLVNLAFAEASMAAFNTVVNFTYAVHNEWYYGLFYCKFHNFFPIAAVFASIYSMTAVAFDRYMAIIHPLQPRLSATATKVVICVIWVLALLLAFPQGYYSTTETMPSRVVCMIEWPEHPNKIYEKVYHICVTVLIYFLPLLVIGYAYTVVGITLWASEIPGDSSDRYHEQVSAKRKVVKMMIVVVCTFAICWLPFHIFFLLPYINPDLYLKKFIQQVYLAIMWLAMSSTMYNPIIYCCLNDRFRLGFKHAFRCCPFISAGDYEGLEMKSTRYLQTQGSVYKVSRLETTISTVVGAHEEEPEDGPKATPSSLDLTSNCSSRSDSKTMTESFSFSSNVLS
Method: U373 cells, a human glioblastoma-astrocytoma cell line that endogenously expresses the neurokinin-1 (NK-1) receptor, were grown in a monolayer culture at 37° C. in 5% CO2 and fed with Minimum Essential Medium (MEM) supplemented with 10% fetal bovine serum. Membranes were prepared as follows: Cells were washed twice with ice-cold phosphate-buffered saline (pH 7.4) and then incubated for 5 to 10 minutes with ice-cold 10 mM Tris buffer (pH 7.4) containing 5 mM EDTA. Cells were removed from plates, homogenized, and centrifuged at 32,000×g for 20 minutes. The resulting supernatant was discarded, and the pellet resuspended by homogenization in 50 mM Tris buffer (pH 7.4) containing 1 mM EDTA and centrifuged at 32,000×g for 20 minutes. […]
On the day of an experiment the membrane preparation was thawed, homogenized and diluted with NK-1 binding assay buffer to the appropriate concentration. […] The amount of radioligand bound in the presence and absence of competitor was analyzed by plotting (−)log drug concentration versus the amount of radioligand specifically bound. […] Ki values were calculated using the method of Cheng and Prusoff [Cheng, Y.-C. and Prusoff, W. H., Biochemical Pharmacology, Vol. 22, pp. 3099-3108, Pergamon Press (1973)].

T1 sequence (P31645 whole entry): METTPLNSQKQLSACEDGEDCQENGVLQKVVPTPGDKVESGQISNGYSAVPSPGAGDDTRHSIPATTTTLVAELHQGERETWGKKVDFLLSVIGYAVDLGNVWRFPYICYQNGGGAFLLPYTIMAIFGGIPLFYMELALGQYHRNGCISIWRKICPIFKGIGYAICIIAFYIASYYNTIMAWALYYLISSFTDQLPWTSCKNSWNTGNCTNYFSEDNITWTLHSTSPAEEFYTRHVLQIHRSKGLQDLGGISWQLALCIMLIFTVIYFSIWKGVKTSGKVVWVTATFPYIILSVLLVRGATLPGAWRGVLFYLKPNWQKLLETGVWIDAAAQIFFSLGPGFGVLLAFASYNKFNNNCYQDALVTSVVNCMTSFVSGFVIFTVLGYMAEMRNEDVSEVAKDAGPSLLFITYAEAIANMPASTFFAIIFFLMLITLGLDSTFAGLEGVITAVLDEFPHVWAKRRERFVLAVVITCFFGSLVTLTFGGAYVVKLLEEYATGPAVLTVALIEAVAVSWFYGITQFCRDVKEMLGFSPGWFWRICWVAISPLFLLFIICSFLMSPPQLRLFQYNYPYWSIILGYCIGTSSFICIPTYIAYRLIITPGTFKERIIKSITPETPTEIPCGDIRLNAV

IC50 [1] [nM]	IC50 [2] [nM]	SMILES
20 to 100	< 20	FC(F)(F)c1cc(COCC2(c3ccccc3)CCCCNCC2)cc(C(F)(F)F)c1 (stereo not shown) [Example 1, 4-((3,5-bis(trifluoromethyl)benzyloxy)methyl)-4-phenylazocane]
20 to 100	< 20	FC(F)(F)c1cc(COCC2(c3ccccc3)CCCNCCC2)cc(C(F)(F)F)c1 [Example 2, 5-((3,5-bis(trifluoromethyl)benzyloxy)methyl)-5-phenylazocane]
